“Also recorded” adds a separate entry of the source.
Tested on: AECs from COPD lungs
Assay: AECs from COPD lungs treated in vitro for 48 h
Assay type: cell-based, human
Procedure: Primary Airway Epithelial Cells (AECs); Normal, Human (ATCC® PCS-301-010™) and Primary Airway Epithelial Cells; COPD (ATCC® PCS-301-013™) were obtained from the ATCC and cultured in Airway Cell Basal Medium with glutamine, Extract P, HLL Supplement, and AEC Supplement. containing and 1% penicillin-streptomycin. The cells were maintained at 37° C. in a humidified atmosphere at 5% CO2. All media, supplements, and antibiotics were purchased from ATCC.
CSP7 and CP were dissolved in DMSO and diluted in HBSS for working concentration of 300 µg/2 ml. These peptides were used for the treatment of COPD in vitro and IP injection of mice. For nasal insufflation, the peptides were formulated as follows: 0.579 mg/ml of CSP7/CP was added to 15.456 mg/ml of lactose monohydrate in phosphate buffered saline and the pH was adjusted to 8.4 to give a clear solution. The solution was filtered through a 0.22-micron syringe filter (Bhandary et al. supra; Tiwari et al., supra).
The cells were lysed with RIPA buffer (Pierce, USA) containing protease inhibitor cocktail (Roche, Germany) and phosphatase inhibitor cocktail (Sigma-Aldrich, USA) on ice for 30 min. After centrifugation at 12,000×g and 4° C. for 20 min, the supernatants were collected. The protein concentrations were determined using the BCA protein assay kit (Pierce, USA). Cell lysates were mixed with 5×SDS-PAGE sample buffer and boiled for 5 min. Thirty micrograms of protein was subjected to 10% SDS-PAGE electrophoresis and transferred to nitrocellulose membranes. The membranes were blocked with 5% milk and then incubated at 4° C. for 16 h with the following diluted primary antibodies (Tiwari et al., supra). The blots were then washed and probed with horseradish peroxidase-conjugated secondary IgG antibodies. The bound antibodies were visualized using SuperSignal™ Maximum Sensitivity Substrate (Thermo Fisher Scientific, USA). For normalization, the membranes were stripped with Restore Western blot stripping buffer and incubated with the following primary antibodies: anti-ERK (1:1000), anti-MUC5AC (1:1000), anti-HDAC6(1:1000), anti-SPDEF(1:1000), anti-FOXA2(1:1000), anti-FOXA3 (1:1000) anti-LC3(1:1000), anti-Beclin1(1:1000), anti-p62(1:1000), anti-p53(1:1000), anti-PAI-1(1:1000) and anti-GAPDH (1:1000).
Cell culture. Primary human AECs from histologically normal and COPD lungs were purchased from ATCC. These cells were cultured in AEC Basal Medium with glutamine, extract P, HLL Supplement, and AEC supplement and 1% penicillin-streptomycin at 37° C. and 5% CO2. AT2 cells were isolated from C57BL/6 mice following the method of Corti and colleagues (Roscioli et al, 2018) with minor modifications. The cells were plated on plastic culture dishes precoated with anti-CD-32 and anti-CD-45 antibodies for 2 h at […]. Non-adherent cells were collected, and the purity of AT2 cell preparations was assessed by […] for inclusion bodies (Shetty et al, 2012).
Peptide preparation. CSP7 and CP were dissolved in DMSO and diluted in HBSS as described elsewhere (Marudamuthu et al., SciTransl Med 11: eaat2848, 2019. doi: 10.1126/scitranslmed.aat2848). These peptides were used to treat AECs in vitro or IP injection of CS-exposed mice. For airway delivery by liquid nebulization, CSP7 (0.579 mg/ml) was added to PBS containing lactose monohydrate (15.456 mg/ml). The pH was adjusted to 8.4 to give a clear solution, filtered through a 0.22-micron syringe filter as described earlier (Marudamuthu et al., 2019.)
Protein extraction and Western blot assay. AEC and AT2 cell lysates were prepared using RIPA buffer (Pierce, USA) containing a protease inhibitor cocktail (Roche, Germany) and phosphatase inhibitor cocktail (Sigma-Aldrich, USA). AEC and AT2 cell lysates were subjected to Western blotting using ERK, MUC5AC, HDAC6, SPDEF, FOXA2, FOXA3, LC3, p53, PAI-1, Acp53, S15p53, cleaved caspase-3, β-galactosidase and R-actin antibodies at 1:500-1:1000 dilution (Table 1). […]

| Substance | Beclin-1 and ATG5 expression | ERK phosphorylation | FOXA2, acetylated alpha-tubulin, CAV1, p53 and PAI-1 proteins | LC3-II accumulation | MMP12 expression | PP2A and CIP2A protein (Western blot) | PP2A mRNA | p62 expression | MUC5AC, HDAC6, PAI-1, p53, Cav1, FOXA3, SPDEF, LC3, FOXA2, Ac-Tub proteins (Western blot) (48 h) |
| --- | --- | --- | --- | --- | --- | --- | --- | --- | --- |
| FTTFTVT (listed as Homo sapiens) [CSP7, heptapeptide fragment of the caveolin-1 scaffolding domain peptide CSP] | mitigate | decrease in ERK phosphorylation; also recorded: reversed in AECs exposed to CSP7 | restoration of FOXA2 and acetylated alpha-tubulin, and inhibition of CAV1, p53 and PAI-1 | reversed | decreased; also recorded: markedly reduced the MMP12 level | reversed | improved | significantly elevated | reversed; also recorded: reduced the expression of MUC5AC, HDAC6, FOXA3, SPDEF and, LC3 |
| WGIDKAFFTTSTVTYKWFRY [CP, scrambled control peptide with the same amino acid composition as CSP, reference compound] | – | still showed elevated phospho-ERK1/2 | – | – | – | – | – | – | – |

Source: US20240082342A1, “PEPTIDE THERAPEUTICS FOR INCREASING LUNG CELL VIABILITY” (BOARD OF REGENTS, THE UNIVERSITY OF TEXAS SYSTEM, priority 2018, published 2024)
